In one assay the test system is Ctenocephalides felis. As to the kind of experiment: Efficacy of spinosyn per os to dogs against Ctenocephalides felis, comb counts of live adult fleas (Example 2). It counts as in vivo. To be noted: for percent reduction in live adult flea counts: by the day 14 comb count. From the text:
Methods: A pool of 40 dogs are to be preliminarily infested with ˜100 unfed adult C. felis in order to produce a pool of dogs that can suitably sustain a reliable infestation rate of approximately 50% of live fleas over a 48-hour period. The dogs with the highest live flea counts are to be randomly allocated to 4 treatment groups (6 dogs per group) based on their pre-treatment flea counts from experimental infestations. The first treatment group is to be the control group and groups 2-4 are to be the test groups.
The dogs are to be housed individually during the study period and are to be fed a commercial dry dog food ration with ad libitum access to water.
Dogs in the control group are not to receive a spinosyn or any other flea control treatment. Each dog in test groups 2-4 is to be offered its daily ration (dry food) and the individual doses of liquid formulation are to be administered after the individual dog has eaten at least 25% of its total daily ration. After receiving the dose of a spinosyn the dogs are to be allowed to continue eating. This mimics incorporating the spinosyn in feed. Each dog in test groups 2-4 and the control group is to be experimentally infested with 100 unfed adult fleas on test days −1, 5, 12, 19, 28 and 35. Comb counts for live adult fleas are to be conducted on days 2, 7, 14, 21, 30 and 37. The final experimental infestation is to occur five days after the last daily dose of spinosyn.

In the next assay the test system is C. felis. Put plainly: Efficacy of spinosyn in medicated feed dosed at 0.5 mg/kg, comb counts of live adult fleas (Example 3). It counts as in vivo. Particulars: dogs. From the text:
Methods: A pool of dogs are to be preliminarily infested with ˜100 unfed adult C. felis in order to produce a pool of 18 dogs that can suitably sustain a reliable infestation rate of approximately 50% of live fleas over a 48-hour period. The dogs with the highest live flea counts are to be randomly allocated to 3 groups (6 dogs per group) based on their pre-treatment flea counts from experimental infestations. The first treatment group is to be the control group and groups 2-3 are to be the test groups.
The dogs are to be housed individually during the study period and are to have ad libitum access to water.
There is to be an initial acclimation period of at least 4 days during which dogs in test groups 2 and 3 are to be transitioned from a standard certified commercial chow to an unmedicated version of the daily feed. During the acclimation period, the dogs are to be allowed 1 hour to consume the feed, after which the dogs' acceptance of the feed will be observed and recorded.
Dogs in the control group are not to receive a spinosyn or any other flea control treatment. On days 0-29, each dog in test groups 2 and 3 is to be offered its daily feed containing spinosyn for a period of 1 hour. On days 30-37 all dogs will be given regular dog food, without spinosyn, or a physiologically acceptable derivative thereof […]

These results are taken from US20230413819A1, “METHODS FOR CONTROLLING FLEA AND TICK INFESTATIONS IN A MAMMAL” (In the Bowl Animal Health, Inc., priority 2021, published 2023).

Consider spinosad, for which the “percent reduction in live adult flea counts” value in the assay with Ctenocephalides felis (Group 2, 0.25 mg/kg daily oral) was determined as 100%; with Ctenocephalides felis (Group 3, 0.50 mg/kg daily oral) it was 100%; with Ctenocephalides felis (Group 4, 1.0 mg/kg daily oral), 100%. Besides, the “efficacy (reduction in live adult flea counts)” value with Ctenocephalides felis (Group 3, 0.50 mg/kg daily oral days 0-29, day 37, after wash out period) is on record as “over 98%”; in the assay with Ctenocephalides felis (Group 4, 1.0 mg/kg daily oral days 0-29, day 37, after wash out period) it was “over 98%”; in the assay with C. felis (Group 2, 0.5 mg/kg daily feed formulation 1, by the 14-day comb count), “over 90%”; in the assay on C. felis (Group 3, 0.5 mg/kg daily feed formulation 2, by the 14-day comb count), “over 90%”.
